# How the values were obtained:
# [1] = Healthy volunteer PK studies PN001/PN002 with IR capsules; type: in vivo, human
# [2] = system: patients with essential tremor; assay: PK/PD: Cmin exposure of CX-8998 vs change in TETRAS-PS (Hill equation); type: in vivo, human; settings: steady state
# Excerpt: Pharmacodynamic variables (Response) evaluated included change from baseline in TETRAS performance subscale, TETRAS activities of daily living, TETRAS total score.
# [3] = Average of the single-dose studies (dose 16)
smiles,measurement,setting,value
CC(C)c1ccc(CC(=O)N[C@H](C)c2ccc(OCC(F)(F)F)cn2)cc1 [CX-8998],AUC0-24,[1]; [3],8.22 µM·h
same,AUCinf,[1]; [3],13.2 µM·h
same,Cmax,[1]; [3],1060 nM
same,AUC0-24,"[1]; PN001 Part 1, 16 mg, 1 dose",8.52 µM·h
same,AUCinf,"[1]; PN001 Part 1, 16 mg, 1 dose",12.5 µM·h
same,AUC0-24,"[1]; PN001 Part 2, 18 mg, 1 dose",9.93 µM·h
same,AUCinf,"[1]; PN001 Part 2, 18 mg, 1 dose",14.6 µM·h
same,Cmax,"[1]; PN001 Part 2, 18 mg, 1 dose, healthy volunteers",1180 nM
same,AUC0-24,"[1]; PN002 Part 1, 18 mg, 1 dose",9.44 µM·h
same,AUCinf,"[1]; PN002 Part 1, 18 mg, 1 dose",18.5 µM·h
same,Cmax,"[1]; PN002 Part 1, 18 mg, 1 dose, healthy volunteers",1330 nM
same,AUC0-24,"[1]; PN002 Part 2, 12 mg, 1 dose",4.99 µM·h
same,AUCinf,"[1]; PN002 Part 2, 12 mg, 1 dose",7.31 µM·h
same,Cmax,"[1]; PN002 Part 2, 12 mg, 1 dose, healthy volunteers",798 nM
same,dose proportionality of plasma profiles,"[1]; immediate release capsules, human subjects",dose proportional in the 2-18 mg dose range
same,"Emax, change from baseline in TETRAS-PS (Hill equation)",[2],approximately −4.1
